Measured values taken from publication PMC3541548 (Bioorganic & medicinal chemistry letters, 2012).
Where two headings read alike, the source gives them in different places.

Legend:
in vitro = conditions: human, microsomes
Human sEH = target: T1, Human sEH (Homo sapiens, UniProt P34913); type: biochemical; conditions: for fold lower potency against sEH: compared to 2-naphthalene analog 7-38
T1 sequence (P34913 1-555): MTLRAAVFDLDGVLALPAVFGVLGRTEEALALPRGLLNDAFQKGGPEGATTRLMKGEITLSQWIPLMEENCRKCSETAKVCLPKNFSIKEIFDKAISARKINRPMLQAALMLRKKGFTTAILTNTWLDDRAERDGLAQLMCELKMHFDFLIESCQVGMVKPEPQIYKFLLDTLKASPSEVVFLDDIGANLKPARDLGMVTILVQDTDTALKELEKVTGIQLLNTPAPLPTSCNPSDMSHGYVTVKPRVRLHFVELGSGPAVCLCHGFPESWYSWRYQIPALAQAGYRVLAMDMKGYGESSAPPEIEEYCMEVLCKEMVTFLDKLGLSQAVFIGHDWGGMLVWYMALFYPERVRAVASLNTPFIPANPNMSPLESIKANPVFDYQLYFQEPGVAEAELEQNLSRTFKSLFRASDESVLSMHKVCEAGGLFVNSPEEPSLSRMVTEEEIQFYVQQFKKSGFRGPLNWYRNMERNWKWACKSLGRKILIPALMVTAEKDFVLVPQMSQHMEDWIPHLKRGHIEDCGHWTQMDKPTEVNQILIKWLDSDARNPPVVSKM

[1] = compared to phenyl compound 7-12

Cc1ccc(S(=O)(=O)N2CCC(C(=O)NC34CC5CC(CC(C5)C3)C4)CC2)c(C)c1 [Compound 7-6]
CLint scaled at 1.5 h (in vitro): 90 mL/min/kg

Cc1ccc(S(=O)(=O)N2CCC(C(=O)Nc3ccc4ccccc4c3)CC2)c(C)c1 [Compound 7-42]
fold lower potency against sEH (Human sEH): 180 fold
CLint scaled at 1.5 h (in vitro): 140 mL/min/kg

Cc1ccc(S(=O)(=O)N2CCC(C(=O)Nc3cccc4cccnc34)CC2)c(C)c1 [Compound 7-20]
CLint scaled at 1.5 h (in vitro): 120 mL/min/kg

Cc1ccc(S(=O)(=O)N2CCC(C(=O)Nc3ccc(F)cc3)CC2)c(C)c1 [Compound 7-39]
fold lower potency against sEH (Human sEH): 5 fold

Cc1ccc(S(=O)(=O)N2CCC(C(=O)Nc3ccc([N+](=O)[O-])cc3)CC2)c(C)c1 [Compound 7-35]
fold increase in potency (lower IC50) (Human sEH; [1]): 2 fold

Cc1ccc(S(=O)(=O)N2CCC(C(=O)Nc3ccc(C(C)C)cc3)CC2)c(C)c1 [Compound 7-37]
fold increase in potency (lower IC50) (Human sEH): 3 fold
CLint scaled at 1.5 h (in vitro): 50 mL/min/kg

Cc1ccc(S(=O)(=O)N2CCC(C(=O)Nc3ccc(OC(F)(F)F)cc3)CC2)c(C)c1 [Compound 7-12]
fold drop in potency against the human sEH (Human sEH; compared to cycloalkyl lead compound 2): 15 fold

Cc1ccc(S(=O)(=O)N2CCC(C(=O)Nc3ccc4cc(C(=O)O)ccc4c3)CC2)c(C)c1 [Compound 7-45]
CLint scaled at 1.5 h (in vitro): 35 mL/min/kg

Cc1ccc(S(=O)(=O)N2CCC(C(=O)Nc3ccc(Cl)c(C(F)(F)F)c3)CC2)c(C)c1 [Compound 7-41]
fold lower potency against sEH (Human sEH): 50 fold

Cc1ccc(S(=O)(=O)N2CCC(C(=O)NC3CC3)CC2)c(C)c1 [Compound 7-24]
in vitro metabolic stability in human liver microsomes (in words): intermediate metabolic profiles
CLint scaled at 1.5 h (in vitro): 7 mL/min/kg

COC(=O)c1ccc(NC(=O)C2CCN(S(=O)(=O)c3ccc(C)cc3C)CC2)cc1 [Compound 7-11]
CLint scaled at 1.5 h (in vitro): 340 mL/min/kg

Cc1ccc(S(=O)(=O)N2CCC(C(=O)Nc3ccc(N4CCOCC4)cc3)CC2)c(C)c1 [Compound 7-14]
fold decrease in potency (Human sEH; [1]): 10 fold

Cc1ccc(S(=O)(=O)N2CCC(C(=O)Nc3ccc4c(c3)OCO4)CC2)c(C)c1 [Compound 7-23]
fold increase in potency (lower IC50) (Human sEH; [1]): 4 fold
in vitro metabolic stability in human liver microsomes (in words): intermediate metabolic profiles
CLint scaled at 1.5 h (in vitro): 28 mL/min/kg

Cc1ccc(S(=O)(=O)N2CCC(C(=O)NC3CCCC3)CC2)c(C)c1 [Compound 7-3]
CLint scaled at 1.5 h (in vitro): 90 mL/min/kg

Cc1ccc(S(=O)(=O)N2CCC(C(=O)Nc3ccc(Br)cc3)CC2)c(C)c1 [Compound 7-40]
fold lower potency against sEH (Human sEH): 30 fold

Cc1ccc(S(=O)(=O)N2CCC(C(=O)Nc3ccc(S(=O)(=O)C(F)(F)F)cc3)CC2)c(C)c1 [Compound 7-38]
CLint scaled at 1.5 h (in vitro): 35 mL/min/kg

Cc1ccc(S(=O)(=O)N2CCC(C(=O)Nc3cccc4cnccc34)CC2)c(C)c1 [Compound 7-44]
fold lower potency against sEH (Human sEH): 15 fold
CLint scaled at 1.5 h (in vitro): 5.6 mL/min/kg

Cc1ccc(S(=O)(=O)N2CCC(C(=O)Nc3ccccc3O)CC2)c(C)c1 [Compound 7-9]
CLint scaled at 1.5 h (in vitro): 520 mL/min/kg

Cc1ccc(S(=O)(=O)N2CCC(C(=O)Nc3ccc(Cl)c(Cl)c3)CC2)c(C)c1 [Compound 7-19]
fold decrease in potency (Human sEH; [1]): 2 fold

Cc1ccc(S(=O)(=O)N2CCC(C(=O)Nc3cccc(C(F)(F)F)c3)CC2)c(C)c1 [Compound 7-16]
fold decrease in potency (Human sEH; [1]): 30 fold
